# Experimental data reported in patent US11111251B2, “Positive allosteric modulators of the muscarinic acetylcholine receptor M1” (Vanderbilt University, priority 2016, dated 2021).
# Molecular target: T1, human mAChR M1 (Homo sapiens, UniProt P11229)
# T1 sequence (P11229 1-460): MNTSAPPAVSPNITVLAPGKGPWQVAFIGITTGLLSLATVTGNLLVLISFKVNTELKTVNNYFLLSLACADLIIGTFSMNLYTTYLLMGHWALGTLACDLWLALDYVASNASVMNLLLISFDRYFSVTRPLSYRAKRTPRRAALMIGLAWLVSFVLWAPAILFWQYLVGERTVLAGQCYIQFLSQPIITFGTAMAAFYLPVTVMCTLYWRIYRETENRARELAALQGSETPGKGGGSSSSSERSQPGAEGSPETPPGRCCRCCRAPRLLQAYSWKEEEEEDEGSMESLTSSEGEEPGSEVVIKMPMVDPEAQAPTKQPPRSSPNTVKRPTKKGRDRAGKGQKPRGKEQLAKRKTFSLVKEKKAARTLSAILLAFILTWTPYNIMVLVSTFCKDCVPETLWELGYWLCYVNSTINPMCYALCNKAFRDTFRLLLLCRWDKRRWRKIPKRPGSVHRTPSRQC
# Test: mAChR M1 cell-based functional assay: calcium mobilization, positive allosteric modulator mode (increase in EC20 acetylcholine response)
# Details: Table 2, human M1; for EC50: read-out: Human M1 EC50; for Emax: read-out: Human M1 Emax (%)
# Summary of the method: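 Calcium-flux assay in CHO-K1 cells stably expressing human M1, loaded with Fluo-4 AM (50 min, 37 °C) and read at 1 Hz. Compound (11-point, 1:3 series) was added at 4 s, EC20 acetylcholine at 144 s and EC80 at 230 s. PAM activity is the concentration-dependent rise in the EC20 response, fitted with a four-parameter logistic.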
Compound,EC50,Emax
"O=C(NCC1CCOC1)c1cc(Cc2ccc(-n3cccn3)cc2)c2sccc2n1 (centres unmarked) [Compound 285, 7-[(4-pyrazol-1-ylphenyl)methyl]-N-(tetrahydrofuran-3-ylmethyl)thieno[3,2-b]pyridine-5-carboxamide]",95.3 nM,64.3%
"O=C(NC[C@@H]1CCCO1)c1cc(Cc2ccc(-n3cccn3)cc2)c2sccc2n1 [Compound 286, 7-[(4-pyrazol-1-ylphenyl)methyl]-N-[[(2S)-tetrahydrofuran-2-yl]methyl]thieno[3,2-b]pyridine-5-carboxamide]",203 nM,69.3%
"O=C(NC[C@H]1CCCO1)c1cc(Cc2ccc(-n3cccn3)cc2)c2sccc2n1 [Compound 287, 7-[(4-pyrazol-1-ylphenyl)methyl]-N-[[(2R)-tetrahydrofuran-2-yl]methyl]thieno[3,2-b]pyridine-5-carboxamide]",49.4 nM,64.9%
"O=C(NCC1CCOCC1)c1cc(Cc2ccc(-n3cccn3)cc2)c2sccc2n1 [Compound 288, 7-[(4-pyrazol-1-ylphenyl)methyl]-N-(tetrahydropyran-4-ylmethyl)thieno[3,2-b]pyridine-5-carboxamide]",97.4 nM,74.4%
"O=C(NCC1CCCCO1)c1cc(Cc2ccc(-n3cccn3)cc2)c2sccc2n1 (centres unmarked) [Compound 289, 7-[(4-pyrazol-1-ylphenyl)methyl]-N-(tetrahydropyran-2-ylmethyl)thieno[3,2-b]pyridine-5-carboxamide]",1160 nM,80.7%
"O=C(N[C@H]1CCCNC1)c1cc(Cc2ccc(-n3cccn3)cc2)c2sccc2n1 [Compound 290, N-[(3S)-3-piperidyl]-7-[(4-pyrazol-1-ylphenyl)methyl]thieno[3,2-b]pyridine-5-carboxamide]",5340 nM,65.3%
"CC1(NC(=O)c2cc(Cc3ccc(-n4cccn4)cc3)c3sccc3n2)CCCNC1 (centres unmarked) [Compound 291, N-(3-methyl-3-piperidyl)-7-[(4-pyrazol-1-ylphenyl)methyl]thieno[3,2-b]pyridine-5-carboxamide]",1120 nM,64.3%
"O=C(NCC1CCN1)c1cc(Cc2ccc(-n3cccn3)cc2)c2sccc2n1 (centres unmarked) [Compound 292, N-(azetidin-2-ylmethyl)-7-[(4-pyrazol-1-ylphenyl)methyl]thieno[3,2-b]pyridine-5-carboxamide]",225 nM,81.8%
"O=C(N[C@H]1CCOC[C@@H]1O)c1cc(Cc2ccc(-n3cccn3)cc2)c2sccc2n1 [Compound 293, N-[(3R,4S)-3-hydroxytetrahydropyran-4-yl]-7-[(4-pyrazol-1-ylphenyl)methyl]thieno[3,2-b]pyridine-5-carboxamide]",6 nM,61.6%
O=C(N[C@H]1CCOC[C@@H]1O)c1cc(Cc2ccc(-c3nccs3)cc2)c2sccc2n1 [Compound 294],15.7 nM,71.1%
O=C(NC1CCOCC1)c1cc(Cc2ccc(-c3nccs3)cc2)c2sccc2n1 [Compound 296],273 nM,79.9%
"O=C(N[C@H]1CC[C@@H]1O)c1cc(Cc2ccc(-c3nccs3)cc2)c2sccc2n1 [Compound 297, N-[(1S,2S)-2-hydroxycyclobutyl]-7-[(4-thiazol-2-ylphenyl)methyl]thieno[3,2-b]pyridine-5-carboxamide]",225 nM,76.4%
"O=C(NCC1CCOCC1)c1cc(Cc2ccc(-c3nccs3)cc2)c2sccc2n1 [Compound 298, N-(tetrahydropyran-4-ylmethyl)-7-[(4-thiazol-2-ylphenyl)methyl]thieno[3,2-b]pyridine-5-carboxamide]",368 nM,45.5%
"Cc1nc(-c2ccc(Cc3cc(C(=O)NC4CC(C)OC(C)C4)nc4ccsc34)cc2)co1 (centres unmarked) [Compound 299, N-(2,6-dimethyltetrahydropyran-4-yl)-7-[[4-(2-methyloxazol-4-yl)phenyl]methyl]thieno[3,2-b]pyridine-5-carboxamide]",702 nM,75%
"Cc1nc(-c2ccc(Cc3cc(C(=O)NC4CCOC(C)(C)C4)nc4ccsc34)cc2)co1 (centres unmarked) [Compound 300, N-(2,2-dimethyltetrahydropyran-4-yl)-7-[[4-(2-methyloxazol-4-yl)phenyl]methyl]thieno[3,2-b]pyridine-5-carboxamide]",225 nM,75.3%
"Cc1csc2c(Cc3ccc(-c4ccn(C)n4)cc3)cc(C(=O)NC3CCOCC3)nc12 [Compound 302, 3-methyl-7-[[4-(1-methylpyrazol-3-yl)phenyl]methyl]-N-tetrahydropyran-4-yl-thieno[3,2-b]pyridine-5-carboxamide]",405 nM,69.9%

# The next lines start with the values.
EC50,Emax,Compound
366 nM,70.7%,"Cc1csc2c(Cc3ccc(-c4ccn(C)n4)cc3)cc(C(=O)N[C@H]3CCC[C@@H]3O)nc12 [Compound 303, N-[(1S,2S)-2-hydroxycyclopentyl]-3-methyl-7-[[4-(1-methylpyrazol-3-yl)phenyl]methyl]thieno[3,2-b]pyridine-5-carboxamide]"
568 nM,72.3%,"Cc1csc2c(Cc3ccc(-c4ccn(C)n4)cc3)cc(C(=O)NC3CC4(COC4)C3)nc12 [Compound 304, 3-methyl-7-[[4-(1-methylpyrazol-3-yl)phenyl]methyl]-N-(2-oxaspiro[3.3]heptan-6-yl)thieno[3,2-b]pyridine-5-carboxamide]"
2850 nM,76.3%,"Cc1csc2c(Cc3ccc(-c4ccn(C)n4)cc3)cc(C(=O)N[C@@H]3CCOC3)nc12 [Compound 305, 3-methyl-7-[[4-(1-methylpyrazol-3-yl)phenyl]methyl]-N-[(3R)-tetrahydrofuran-3-yl]thieno[3,2-b]pyridine-5-carboxamide]"
2920 nM,79.3%,Cc1csc2c(Cc3ccc(-c4ccn(C)n4)cc3)cc(C(=O)N[C@H]3CCOC3)nc12 [Compound 306]
3440 nM,67.2%,"Cc1csc2c(Cc3ccc(-c4ccn(C)n4)cc3)cc(C(=O)NC3COC3)nc12 [Compound 307, 3-methyl-7-[[4-(1-methylpyrazol-3-yl)phenyl]methyl]-N-(oxetan-3-yl)thieno[3,2-b]pyridine-5-carboxamide]"
5360 nM,62.1%,"Cc1csc2c(Cc3ccc(-c4ccn(C)n4)cc3)cc(C(=O)NC3CC(F)C3)nc12 (centres unmarked) [Compound 308, N-(3-fluorocyclobutyl)-3-methyl-7-[[4-(1-methylpyrazol-3-yl)phenyl]methyl]thieno[3,2-b]pyridine-5-carboxamide]"
4930 nM,57.3%,"Cc1csc2c(Cc3ccc(-c4ccn(C)n4)cc3)cc(C(=O)NC3CC(F)(F)C3)nc12 [Compound 309, N-(3,3-difluorocyclobutyl)-3-methyl-7-[[4-(1-methylpyrazol-3-yl)phenyl]methyl]thieno[3,2-b]pyridine-5-carboxamide]"
471 nM,78.1%,"Cc1csc2c(Cc3ccc(-c4ccn(C)n4)cc3)cc(C(=O)NCC3CCO3)nc12 (centres unmarked) [Compound 310, 3-methyl-7-[[4-(1-methylpyrazol-3-yl)phenyl]methyl]-N-(oxetan-2-ylmethyl)thieno[3,2-b]pyridine-5-carboxamide]"
714 nM,77.1%,"Cc1csc2c(Cc3ccc(-c4ccn(C)n4)cc3)cc(C(=O)NCC3CCOC3)nc12 (centres unmarked) [Compound 311, 3-methyl-7-[[4-(1-methylpyrazol-3-yl)phenyl]methyl]-N-(tetrahydrofuran-3-ylmethyl)thieno[3,2-b]pyridine-5-carboxamide]"
